Test results: US9238796B2, “Cell growth-promoting peptide and use thereof” (TOAGOSEI CO., LTD., priority 2010, dated 2016)
No end group written: not given here.

Tests used:
[1] = test system: Rat bone marrow-derived stem cells (mesenchymal stem cells); experiment: Evaluation of cell growth-promoting activity, WST-8 colorimetric method (Example 2); assay type: cell-based; settings: WST-8 absorbance at 450 nm, peptide approximately 2 μM, bFGF 10 ng/mL
Experimental: Experimental sections were set up that used the cell growth-promoting peptides obtained in Example 1 (samples 1 to 21) as a cell growth promoter and that used a commercially available bFGF as a cell growth promoter as a comparative example. For the control, a peptide-free section (the bFGF was also not added) was set up.
(§1) The details of the evaluation testing are provided below. Each synthesized sample peptide was dissolved in PBS (phosphate-buffered physiological saline) to prepare a stock solution with a peptide concentration of 1 mM.
(§2) Rat bone marrow-derived stem cells (mesenchymal stem cells) were used as the test cells. Specifically, the test stem cells were cultured by passage on Dulbecco's MEM medium (DMEM medium: Gibco product) containing 10% fetal bovine serum (FBS: Gibco product), 2 mM of L-glutamine, 50 unit/mL of penicillin, and 50 μg/mL of streptomycin. From the second passage to the fourth passage (passages 2 to 4) were used in this evaluation testing.
(§3) Thus, the test stem cells were preliminarily recovered by treatment with a 0.05% trypsin-0.53 mM EDTA solution; a test stem cell solution, prepared with the DMEM medium containing 10 ng/mL of bFGF to provide 1×10^4 cells/mL, was seeded to each well of a 96-well plate to provide a cell count of 1×10^3 per well; and pre-cultivation was carried out overnight. The amount of medium was brought to 100 μL per well for this.
The medium in each well was then exchanged for fresh medium to which a stock solution of a peptide selected from sample 1 to 21 had been added, so as to give a concentration of the peptide in each well of approximately 2 μM. For comparison, in some wells the medium in the well was exchanged for fresh medium to which a commercially available bFGF (product of PeproTech) had been added to give a concentration of 10 ng/mL (the bFGF experimental section in Table 3).
(§4) After the addition of the sample peptide or bFGF as indicated above, the 96-well plate was placed in a CO2 incubator and cultivation at quiescence was carried out at 37° C. under 5% CO2. Medium exchange was performed every other day. The exchange medium was the same as that used at the start of cultivation (i.e., the same sample peptide or bFGF was also added to the exchange medium as in the sample peptide addition section or bFGF addition section).
During this cultivation test, a “water-soluble tetrazolium salt (WST-8)” was added as a chromogenic reagent to some wells at the start of cultivation (day 0), at two days after the start of cultivation (day 2), and at four days after the start of cultivation (day 4). After incubation for 2 hours after the addition, the cell culture fluid to which the chromogenic reagent had been added was recovered. The extent of cell growth was evaluated by a colorimetric method in which, based on reduction of the tetrazolium salt, the absorbance (OD450) at a wavelength of 450 nm was measured.

[2] = test system: Rat bone marrow-derived stem cells (mesenchymal stem cells); experiment: Evaluation of cell growth-promoting activity, WST-8 colorimetric method (Example 5); assay type: cell-based; settings: WST-8 absorbance at 450 nm, peptide approximately 2 μM, bFGF 10 ng/mL; for OD450 at the start of cultivation: day 0; for OD450 after 4 days: day 4
Experimental: Experimental sections were set up that used the cell growth-promoting peptides obtained in Example 4 (samples 22 to 42) as a cell growth promoter and that used a commercially available bFGF as a cell growth promoter as a comparative example. For the control, a peptide-free section (the bFGF was also not added) was set up.
as §1, §2, §3
The medium in each well was then exchanged for fresh medium to which a stock solution of a peptide selected from sample 22 to 42 had been added, so as to give a concentration of the peptide in each well of approximately 2 μM. For comparison, in some wells the medium in the well was exchanged for fresh medium to which a commercially available bFGF (product of PeproTech) had been added to give a concentration of 10 ng/mL (the bFGF experimental section in Table 6).
as §4
During this cultivation test, a “water-soluble tetrazolium salt (WST-8)” was added as a chromogenic reagent to some wells at the start of cultivation (day 0) and at four days after the start of cultivation (day 4). After incubation for 2 hours after the addition, the cell culture fluid to which the chromogenic reagent had been added was recovered. The extent of cell growth was evaluated by a colorimetric method in which, based on reduction of the tetrazolium salt, the absorbance (OD450) at a wavelength of 450 nm was measured.

Substance | OD450 at the start of cultivation ([1]; day 0) | OD450 after 2 days ([1]; day 2) | OD450 after 4 days ([1]; day 4) | OD450 at the start of cultivation [2] | OD450 after 4 days [2]
basic fibroblast growth factor [bFGF, reference compound] | 0.058 | 0.196 | 0.484 | 0.051 | 0.499
MLPGLALGKKRTLRKNDRKKR (MLPGLALGKKRTLRKNDRKKR-NH2) [compound 42] | – | – | – | 0.051 | 0.346
MLPGLALLLLAAGKKRTLRKNDRKKR (MLPGLALLLLAAGKKRTLRKNDRKKR-NH2) [sample 37] | – | – | – | 0.051 | 0.571
MLPGLALLLLAAWGKKRTLRKNDRKKR (MLPGLALLLLAAWGKKRTLRKNDRKKR-NH2) [compound 36] | – | – | – | 0.051 | 0.288
MLPGLALLLLAAWTAGKKRTLRKNDRKKR (MLPGLALLLLAAWTAGKKRTLRKNDRKKR-NH2) [compound 34] | – | – | – | 0.051 | 0.243
MLPGLALLLLAGKKRTLRKNDRKKR (MLPGLALLLLAGKKRTLRKNDRKKR-NH2) [compound 38] | – | – | – | 0.051 | 0.491
MLPGLALLLLAAWTARAGKKRTLRKNDRKKR (MLPGLALLLLAAWTARAGKKRTLRKNDRKKR-NH2) [sample 22] | – | – | – | 0.051 | 0.241
LALLLLAAWTARAGKKRTLRKNDRKKR (LALLLLAAWTARAGKKRTLRKNDRKKR-NH2) [compound 25] | – | – | – | 0.051 | 0.319
AWTARAGKKRTLRKNDRKKR (AWTARAGKKRTLRKNDRKKR-NH2) [compound 32] | – | – | – | 0.051 | 0.433
